The source made the active and inactive calls. The rule behind the calls is not given here.
Assays:
Pseudomonas aeruginosa [1] = experiment: Synergistic antibacterial activity against multi-drug resistant Pseudomonas aeruginosa CCARM 2095 assessed as fractional inhibitory concentration index by measuring ratio of MIC of Chloramphenicol in presence of compound to MIC to Chloramphenicol incubated for 24 hrs by broth microdilution method; format: functional
Staphylococcus aureus [2] = experiment: Antibacterial activity against Staphylococcus aureus KCTC 1621 incubated for 24 hrs by CLSI based broth microdilution method; format: functional
RAW264.7 [3] = experiment: Anti-inflammatory activity in mouse RAW264.7 cells assessed as decrease in LPS-induced ROS production at 5 uM pretreated for 1 hr followed by LPS treatment for 16 hrs by DCFDA staining based analysis relative to control; format: functional
Staphylococcus aureus [4] = experiment: Synergistic antibacterial activity against methicillin-resistant Staphylococcus aureus CCARM 3089 assessed as fractional inhibitory concentration index incubated for 24 hrs in presence of Chloramphenicol by broth microdilution method; format: functional
Acinetobacter baumannii [5] = experiment: Antibacterial activity against carbapenem-resistant Acinetobacter baumannii NMS 1915 incubated for 24 hrs by CLSI based broth microdilution method; format: functional
[6] = Effect on secondary structure of drug in TFE assessed as fold increase in formation of alpha-helical conformation at 150 uM by CD analysis relative to HVF18; format: physicochemical
Escherichia coli [7] = experiment: Antibacterial activity against Escherichia coli KCTC 1682 incubated for 24 hrs in presence of NH4Cl by CLSI based broth microdilution method; format: functional
Pseudomonas aeruginosa [8] = experiment: Synergistic antibacterial activity against multi-drug resistant Pseudomonas aeruginosa CCARM 2095 assessed as fractional inhibitory concentration index incubated for 24 hrs in presence of Ciprofloxacin by broth microdilution method; format: functional
Pseudomonas aeruginosa [9] = experiment: Antibacterial activity against multi-drug resistant Pseudomonas aeruginosa CCARM 2095 incubated for 24 hrs by broth microdilution method; format: functional
RAW264.7 [10] = experiment: Anti-inflammatory activity in mouse RAW264.7 cells assessed as inhibition of LPS-induced NO production at 5 uM pretreated for 1 hr followed by LPS treatment for 16 hrs by Griess assay relative to control; format: functional; settings: time 17 hrs
Pseudomonas aeruginosa [11] = experiment: Antibacterial activity against multidrug-resistant Pseudomonas aeruginosa CCARM 2109 incubated for 24 hrs by CLSI based broth microdilution method; format: functional
Escherichia coli [12] = experiment: Antibacterial activity against Escherichia coli KCTC 1682 incubated for 24 hrs in presence of KCl by CLSI based broth microdilution method; format: functional
Enterococcus faecium = experiment: Antibacterial activity against vancomycin-resistant Enterococcus faecium ATCC 51559 incubated for 24 hrs by CLSI based broth microdilution method; format: functional
RAW264.7 [13] = experiment: Anti-inflammatory activity in mouse RAW264.7 cells assessed as decrease in LPS-induced ROS production at 2.5 uM pretreated for 1 hr followed by LPS treatment for 16 hrs by DCFDA staining based analysis relative to control; format: functional; settings: time 17 hrs
Pseudomonas aeruginosa [14] = experiment: Synergistic antibacterial activity against multi-drug resistant Pseudomonas aeruginosa CCARM 2095 assessed as fractional inhibitory concentration index by measuring ratio of MIC of Ciprofloxacin in presence of compound to MIC to Ciprofloxacin incubated for 24 hrs by broth microdilution method; format: functional
Escherichia coli [15] = experiment: Antibacterial activity against Escherichia coli KCTC 1682 incubated for 24 hrs in presence of NaCl by CLSI based broth microdilution method; format: functional
RAW264.7 [16] = experiment: Anti-inflammatory activity in mouse RAW264.7 cells assessed as decrease in LPS-induced TNF-alpha level at 5 uM pretreated for 1 hr followed by LPS treatment for 16 hrs by ELISA relative to control; format: functional; settings: time 17 hrs
Bacillus subtilis = experiment: Antibacterial activity against Bacillus subtilis KCTC 3068 incubated for 24 hrs by CLSI based broth microdilution method; format: functional
Pseudomonas aeruginosa [17] = experiment: Synergistic antibacterial activity against multi-drug resistant Pseudomonas aeruginosa CCARM 2095 assessed as MIC of Oxacillin incubated for 24 hrs by broth microdilution method; format: functional
Staphylococcus aureus [18] = experiment: Synergistic antibacterial activity against methicillin-resistant Staphylococcus aureus CCARM 3089 incubated for 24 hrs in presence of Ciprofloxacin by broth microdilution method; format: functional
Staphylococcus aureus [19] = experiment: Synergistic antibacterial activity against methicillin-resistant Staphylococcus aureus CCARM 3089 assessed as MIC of Ciprofloxacin incubated for 24 hrs by broth microdilution method; format: functional
Staphylococcus aureus [20] = experiment: Synergistic antibacterial activity against methicillin-resistant Staphylococcus aureus CCARM 3089 assessed as fractional inhibitory concentration index by measuring ratio of MIC of compound in presence of Ciprofloxacin to MIC to compound incubated for 24 hrs by broth microdilution method; format: functional
Acinetobacter baumannii [21] = experiment: Antibacterial activity against carbapenem-resistant Acinetobacter baumannii NMS 1707 incubated for 24 hrs by CLSI based broth microdilution method; format: functional
Staphylococcus aureus [22] = experiment: Synergistic antibacterial activity against methicillin-resistant Staphylococcus aureus CCARM 3089 assessed as fractional inhibitory concentration index by measuring ratio of MIC of Oxacillin in presence of compound to MIC to Oxacillin incubated for 24 hrs by broth microdilution method; format: functional
Pseudomonas aeruginosa [23] = experiment: Synergistic antibacterial activity against multi-drug resistant Pseudomonas aeruginosa CCARM 2095 incubated for 24 hrs in presence of Chloramphenicol by broth microdilution method; format: functional
Staphylococcus aureus [24] = experiment: Synergistic antibacterial activity against methicillin-resistant Staphylococcus aureus CCARM 3089 assessed as fractional inhibitory concentration index incubated for 24 hrs in presence of Ciprofloxacin by broth microdilution method; format: functional
Pseudomonas aeruginosa [25] = experiment: Antibacterial activity against Pseudomonas aeruginosa KCTC 1637 incubated for 24 hrs by CLSI based broth microdilution method; format: functional
Acinetobacter baumannii [26] = experiment: Antibacterial activity against multidrug-resistant Acinetobacter baumannii 329-53 incubated for 24 hrs by CLSI based broth microdilution method; format: functional
Staphylococcus aureus [27] = experiment: Synergistic antibacterial activity against methicillin-resistant Staphylococcus aureus CCARM 3089 incubated for 24 hrs in presence of Oxacillin by broth microdilution method; format: functional
Escherichia coli [28] = experiment: Induction of cytoplasmic membrane potential in Escherichia coli KCTC 1682 at 0.5 to 1 times MIC measured for 500 secs by diSC3-5 dye based analysis; format: functional, organism-based; settings: time 500.0 sec
Escherichia coli [29] = experiment: Induction of outer membrane permeabilization in Escherichia coli KCTC 1682 by NPN dye based analysis; format: functional, organism-based
[30] = Hemolytic activity in sheep RBC incubated for 1 hr by absorbance based assay; format: toxicity, cell-based, Ovis aries; settings: erythrocyte
Pseudomonas aeruginosa [31] = experiment: Synergistic antibacterial activity against multi-drug resistant Pseudomonas aeruginosa CCARM 2095 assessed as fractional inhibitory concentration index incubated for 24 hrs in presence of Oxacillin by broth microdilution method; format: functional
Escherichia coli [32] = experiment: Induction of cytoplasmic membrane depolarization in Escherichia coli KCTC 1682 at MIC measured for 500 secs by diSC3-5 dye based analysis relative to control; format: functional; settings: time 500 sec; 0.1389 h
[33] = Effect on secondary structure of drug in PBS assessed as formation of random coil structure at 150 uM by CD analysis; format: physicochemical; settings: buffer
Staphylococcus aureus [34] = experiment: Synergistic antibacterial activity against methicillin-resistant Staphylococcus aureus CCARM 3089 assessed as MIC of Oxacillin incubated for 24 hrs by broth microdilution method; format: functional
Pseudomonas aeruginosa [35] = experiment: Synergistic antibacterial activity against multi-drug resistant Pseudomonas aeruginosa CCARM 2095 assessed as fractional inhibitory concentration index by measuring ratio of MIC of compound in presence of Ciprofloxacin to MIC to compound incubated for 24 hrs by broth microdilution method; format: functional
[36] = Hydrophobicity of compound assessed as retention time by RP-HPLC analysis; format: physicochemical

| Substance | FIC (Pseudomonas aeruginosa [1]) | MIC (Staphylococcus aureus [2]) [µM] | inhibition at 5 µM (RAW264.7 [3]) [%] | fractional inhibitory concentration index (FICI) (Staphylococcus aureus [4]) | MIC (Acinetobacter baumannii [5]) [µM] | fold change (FC) [6] | MIC (Escherichia coli [7]) [µM] | fractional inhibitory concentration index (FICI) (Pseudomonas aeruginosa [8]) | MIC (Pseudomonas aeruginosa [9]) [µM] | inhibition at 5 µM (RAW264.7 [10]) [%] | MIC (Pseudomonas aeruginosa [11]) [µM] | MIC (Escherichia coli [12]) [µM] | MIC (Enterococcus faecium) [µM] | inhibition at 2.5 µM (RAW264.7 [13]) [%] | FIC (Pseudomonas aeruginosa [14]) | MIC (Escherichia coli [15]) [µM] | inhibition at 5 µM (RAW264.7 [16]) [%] | MIC (Bacillus subtilis) [µM] | MIC (Pseudomonas aeruginosa [17]) [µM] | MIC (Staphylococcus aureus [18]) [µM] | further results |
| --- | --- | --- | --- | --- | --- | --- | --- | --- | --- | --- | --- | --- | --- | --- | --- | --- | --- | --- | --- | --- | --- |
| H-GVFRLKKWIKKVIKKWGK-NH2 | 0.125 | 8 | 40 | 0.5 | 2 | ~ 5 | 16 | 0.625 | 8 | 89 | 16 | 32 | 8 | 14.9 | 0.125 | 32 | 5.7 | 4 | 128 | 2 | MIC (Staphylococcus aureus [19]): 512 µM; FIC (Staphylococcus aureus [20]): 0.25; MIC (Acinetobacter baumannii [21]): 4 µM; FIC (Staphylococcus aureus [22]): 0.25; MIC (Pseudomonas aeruginosa [23]): 2 µM; fractional inhibitory concentration index (FICI) (Staphylococcus aureus [24]): 0.75; MIC (Pseudomonas aeruginosa [25]): 8 µM; MIC (Acinetobacter baumannii [26]): 4 µM; MIC (Staphylococcus aureus [27]): 0.5 µM; Activity (Escherichia coli [28]): Active; Activity (Escherichia coli [29]): Dose-dependent-effect; HC10 [30]: > 256 µM; fractional inhibitory concentration index (FICI) (Pseudomonas aeruginosa [31]): 0.281; Activity (Escherichia coli [32]): ~100%; Activity [33]: Active; MIC (Staphylococcus aureus [34]): 512 µM; FIC (Pseudomonas aeruginosa [35]): 0.5; Retention_time [36]: 20.06 min |
| H-GVFRLKKWLKKVKKWGK-NH2 | 0.125 | 8 | 51.1 | 0.563 | 4 | ~ 5 | 16 | 0.75 | 8 | 91.6 | 8 | 16 | 8 | 38.2 | 0.25 | 32 | 78.1 | 4 | 128 | 4 | MIC (Staphylococcus aureus [19]): 512 µM; FIC (Staphylococcus aureus [20]): 0.5; MIC (Acinetobacter baumannii [21]): 4 µM; FIC (Staphylococcus aureus [22]): 0.25; MIC (Pseudomonas aeruginosa [23]): 2 µM; fractional inhibitory concentration index (FICI) (Staphylococcus aureus [24]): 1; MIC (Pseudomonas aeruginosa [25]): 8 µM; MIC (Acinetobacter baumannii [26]): 4 µM; MIC (Staphylococcus aureus [27]): 0.5 µM; Activity (Escherichia coli [28]): Active; Activity (Escherichia coli [29]): Dose-dependent-effect; HC10 [30]: > 256 µM; fractional inhibitory concentration index (FICI) (Pseudomonas aeruginosa [31]): 0.281; Activity (Escherichia coli [32]): ~100%; Activity [33]: Active; MIC (Staphylococcus aureus [34]): 512 µM; FIC (Pseudomonas aeruginosa [35]): 0.5; Retention_time [36]: 21.66 min |
